{"source": "patent US8952034B2", "about": "“Fused heterocyclic compounds as ion channel modulators” (Gilead Sciences, Inc., priority 2009, dated 2015)", "data": [{"molecular_target": "wild-type human cardiac sodium channel, hNav1.5 (Homo sapiens, UniProt Q14524)", "sequence (Q14524 whole entry)": "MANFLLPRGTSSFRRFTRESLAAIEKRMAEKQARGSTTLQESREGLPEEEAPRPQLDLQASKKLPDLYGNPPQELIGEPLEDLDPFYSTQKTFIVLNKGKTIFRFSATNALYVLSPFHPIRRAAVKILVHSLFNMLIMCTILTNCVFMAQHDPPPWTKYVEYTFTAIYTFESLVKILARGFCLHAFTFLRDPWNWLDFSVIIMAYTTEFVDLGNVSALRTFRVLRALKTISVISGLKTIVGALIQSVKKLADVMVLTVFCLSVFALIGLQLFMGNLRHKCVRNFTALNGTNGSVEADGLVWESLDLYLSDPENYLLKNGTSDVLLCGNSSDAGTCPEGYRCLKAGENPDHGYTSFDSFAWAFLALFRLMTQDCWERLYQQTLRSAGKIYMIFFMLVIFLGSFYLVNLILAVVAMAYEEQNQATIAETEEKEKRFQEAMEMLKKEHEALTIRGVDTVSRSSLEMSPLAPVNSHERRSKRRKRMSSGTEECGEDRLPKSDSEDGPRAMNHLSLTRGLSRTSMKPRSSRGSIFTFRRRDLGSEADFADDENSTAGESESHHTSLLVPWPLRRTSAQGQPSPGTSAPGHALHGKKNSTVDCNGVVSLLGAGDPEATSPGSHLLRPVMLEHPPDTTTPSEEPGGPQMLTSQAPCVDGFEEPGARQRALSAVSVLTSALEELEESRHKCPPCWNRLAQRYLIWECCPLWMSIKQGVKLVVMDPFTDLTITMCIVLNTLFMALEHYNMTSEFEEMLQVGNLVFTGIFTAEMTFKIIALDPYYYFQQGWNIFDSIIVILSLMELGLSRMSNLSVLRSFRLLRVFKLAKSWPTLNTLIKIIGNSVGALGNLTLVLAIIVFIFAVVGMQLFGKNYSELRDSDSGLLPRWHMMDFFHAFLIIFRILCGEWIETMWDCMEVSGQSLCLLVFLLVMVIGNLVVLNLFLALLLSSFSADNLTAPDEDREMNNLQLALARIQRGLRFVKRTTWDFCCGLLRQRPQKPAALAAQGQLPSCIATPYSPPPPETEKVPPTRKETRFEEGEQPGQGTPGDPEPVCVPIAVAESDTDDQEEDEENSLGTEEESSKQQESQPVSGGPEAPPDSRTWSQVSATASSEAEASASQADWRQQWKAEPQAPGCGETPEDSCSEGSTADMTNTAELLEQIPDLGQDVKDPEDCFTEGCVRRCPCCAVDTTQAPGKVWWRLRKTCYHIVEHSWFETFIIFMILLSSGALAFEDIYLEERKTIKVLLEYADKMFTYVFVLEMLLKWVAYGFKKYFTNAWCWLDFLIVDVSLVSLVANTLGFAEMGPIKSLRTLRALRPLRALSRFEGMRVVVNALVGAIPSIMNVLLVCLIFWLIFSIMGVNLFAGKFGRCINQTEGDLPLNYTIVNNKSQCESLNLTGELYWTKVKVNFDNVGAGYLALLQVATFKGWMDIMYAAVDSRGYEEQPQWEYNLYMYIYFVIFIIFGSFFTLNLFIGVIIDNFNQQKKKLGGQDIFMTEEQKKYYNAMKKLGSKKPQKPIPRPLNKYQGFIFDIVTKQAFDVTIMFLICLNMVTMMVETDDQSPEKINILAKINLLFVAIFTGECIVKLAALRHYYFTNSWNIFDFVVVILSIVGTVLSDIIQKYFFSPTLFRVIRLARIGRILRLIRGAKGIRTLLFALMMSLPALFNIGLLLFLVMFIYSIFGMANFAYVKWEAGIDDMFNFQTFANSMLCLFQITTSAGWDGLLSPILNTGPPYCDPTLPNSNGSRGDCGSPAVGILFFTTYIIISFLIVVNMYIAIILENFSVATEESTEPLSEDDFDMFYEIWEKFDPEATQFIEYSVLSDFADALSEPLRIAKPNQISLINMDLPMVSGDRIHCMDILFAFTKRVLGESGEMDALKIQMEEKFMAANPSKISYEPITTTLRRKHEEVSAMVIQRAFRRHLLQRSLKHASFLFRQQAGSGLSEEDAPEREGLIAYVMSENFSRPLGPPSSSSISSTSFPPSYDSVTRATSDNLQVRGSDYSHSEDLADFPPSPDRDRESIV", "experiment": "Late INa screening assay (automated whole cell patch clamp, PatchXpress)", "assay_type": "cell-based", "details": "compound at 1 μM; HEK293 cells expressing hNav1.5; late INa generated with 10 μM Tefluthrin (or 50 nM ATX II); read-out: LateINa_1 uM (percent block of late INa)", "method_in_brief": "(§1)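 Late sodium current through wild-type human hNav1.5 stably expressed in HEK293 cells (no beta subunits) was recorded by automated whole-cell patch clamp on a PatchXpress 7000A at 24-27° C. Late INa was induced with 10 μM Tefluthrin or 50 nM ATX II. Cells were stepped from −120 mV to −20 mV for 250 ms at 0.1 Hz, and percent block was normalized to current in Na-free extracellular solution.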", "units": {"inhibition at 1 µM": "%"}, "values": [{"compound": "N#Cc1ccc(C(F)(F)Oc2ccc(-c3ccc4nnc(C(F)(F)F)n4c3)cc2)cc1", "note": "[BHN-280, 4-(difluoro{4-[3-(trifluoromethyl)[1,2,4]triazolo[4,3-a]pyridin-6-yl]phenoxy}methyl)benzonitrile]", "inhibition at 1 µM": 63.7}, {"compound": "CC(C)(O)C#Cc1nnc2ccc(-c3ccc(OC(F)(F)F)cc3)cn12", "note": "[BHN-173, 2-methyl-4-{6-[4-(trifluoromethoxy)phenyl][1,2,4]triazolo[4,3-a]pyridin-3-yl}but-3-yn-2-ol]", "inhibition at 1 µM": 30.8}, {"compound": "C/C(=C\\C#N)c1ccc(-c2ccc3nnc(C(F)(F)F)n3c2)cc1", "note": "[BHN-169, (2E)-3-{4-[3-(trifluoromethyl)[1,2,4]triazolo[4,3-a]pyridin-6-yl]phenyl}but-2-enenitrile]", "inhibition at 1 µM": 30.5}, {"compound": "FC(F)(F)c1nnc2ccc(-c3ccc(OC4CC4)nc3)cn12", "note": "[BHN-180, 6-[6-(cyclopropyloxy)pyridin-3-yl]-3-(trifluoromethyl)[1,2,4]triazolo[4,3-a]pyridine]", "inhibition at 1 µM": 21.1}, {"compound": "FC(F)(F)c1nnc2ccc(-c3ccc(C4CC4)cc3)cn12", "note": "[BHN-90, 6-(4-cyclopropylphenyl)-3-(trifluoromethyl)[1,2,4]triazolo[4,3-a]pyridine]", "inhibition at 1 µM": 63.4}, {"compound": "COCC(F)(F)c1nnc2ccc(C#Cc3ccc(OC(F)(F)F)cc3)cn12", "note": "[BHN-309, 3-(1,1-difluoro-2-methoxyethyl)-6-{[4-(trifluoromethoxy)phenyl]ethynyl}[1,2,4]triazolo[4,3-a]pyridine]", "inhibition at 1 µM": 25.2}, {"compound": "N#CC1(c2ccc(-c3ccc4nnc(C(F)(F)F)n4c3)cc2)CCCC1", "note": "[BHN-135, 1-{4-[3-(trifluoromethyl)[1,2,4]triazolo[4,3-a]pyridin-6-yl]phenyl}cyclopentanecarbonitrile]", "inhibition at 1 µM": 49.2}, {"compound": "COCC(F)(F)c1nnc2ccc(C#Cc3ccccc3)cn12", "note": "[BHN-192, 3-(1,1-difluoro-2-methoxyethyl)-6-(phenylethynyl)[1,2,4]triazolo[4,3-a]pyridine]", "inhibition at 1 µM": 31}, {"compound": "N#CCOCC(F)(F)c1nnc2ccc(-c3ccc(OC(F)(F)F)cc3)cn12", "note": "[BHN-156, (2,2-difluoro-2-{6-[4-(trifluoromethoxy)phenyl][1,2,4]triazolo[4,3-a]pyridin-3-yl}ethoxy)acetonitrile]", "inhibition at 1 µM": 22.3}, {"compound": "CC(C)Cc1nc(COC(F)(F)c2nnc3ccc(-c4ccc(OC(F)(F)F)cc4)cn23)no1", "note": "[BHN-207, 3-(difluoro{[5-(2-methylpropyl)-1,2,4-oxadiazol-3-yl]methoxy}methyl)-6-[4-(trifluoromethoxy)phenyl][1,2,4]triazolo[4,3-a]pyridine]", "inhibition at 1 µM": 60.3}, {"compound": "O=[N+]([O-])c1cc(F)ccc1Oc1ccc(-c2ccc3nnc(C(F)(F)F)n3c2)cc1", "note": "[BHN-110, 6-[4-(4-fluoro-2-nitrophenoxy)phenyl]-3-(trifluoromethyl)[1,2,4]triazolo[4,3-a]pyridine]", "inhibition at 1 µM": 18.2}, {"compound": "N#CCOCc1c(-c2ccc(OC(F)(F)F)cc2)ccc2nnc(C(F)(F)F)n12", "note": "[BHN-279, ({6-[4-(trifluoromethoxy)phenyl]-3-(trifluoromethyl)[1,2,4]triazolo[4,3-a]pyridin-5-yl}methoxy)acetonitrile]", "inhibition at 1 µM": 19.1}, {"compound": "Cn1nc(COC(F)(F)c2nnc3ccc(-c4ccc(OC(F)(F)F)cc4)cn23)cc1-c1ccccc1", "note": "[BHN-224, 3-{difluoro[(1-methyl-5-phenyl-1H-pyrazol-3-yl)methoxy]methyl}-6-[4-(trifluoromethoxy)phenyl][1,2,4]triazolo[4,3-a]pyridine]", "inhibition at 1 µM": 24.2}, {"compound": "FC(F)(F)Oc1ccc(-c2ccc3nnc(C(F)(F)OCc4cc(-c5ccccc5Cl)on4)n3c2)cc1", "note": "[BHN-326, 3-[{[5-(2-chlorophenyl)-1,2-oxazol-3-yl]methoxy}(difluoro)methyl]-6-[4-(trifluoromethoxy)phenyl][1,2,4]triazolo[4,3-a]pyridine]", "inhibition at 1 µM": 52.4}, {"compound": "FC(F)(F)c1nnc2ccc(-c3ccc(Oc4cccnc4)cc3)cn12", "note": "[BHN-100, 6-[4-(pyridin-3-yloxy)phenyl]-3-(trifluoromethyl)[1,2,4]triazolo[4,3-a]pyridine]", "inhibition at 1 µM": 27.6}, {"compound": "FC(F)(F)Oc1ccc(-c2ccc3nnc(Oc4ccccc4)n3c2)cc1", "note": "[BHN-143, 3-phenoxy-6-[4-(trifluoromethoxy)phenyl][1,2,4]triazolo[4,3-a]pyridine]", "inhibition at 1 µM": 81.4}, {"compound": "CS(=O)(=O)NCC(F)(F)c1nnc2ccc(-c3ccc(OC(F)(F)F)cc3)cn12", "note": "[BHN-175, N-(2,2-difluoro-2-{6-[4-(trifluoromethoxy)phenyl][1,2,4]triazolo[4,3-a]pyridin-3-yl}ethyl)methanesulfonamide]", "inhibition at 1 µM": 16.3}, {"compound": "Cc1cc(COC(F)(F)c2nnc3ccc(-c4ccc(OC(F)(F)F)cc4)cn23)c2ccccc2n1", "note": "[BHN-289, 4-[(difluoro{6-[4-(trifluoromethoxy)phenyl][1,2,4]triazolo[4,3-a]pyridin-3-yl}methoxy)methyl]-2-methylquinoline]", "inhibition at 1 µM": 47.9}, {"compound": "N#CC1(c2ccc(-c3ccc4nnc(C(F)(F)F)n4c3)cc2)CCOCC1", "note": "[BHN-254, 4-{4-[3-(trifluoromethyl)[1,2,4]triazolo[4,3-a]pyridin-6-yl]phenyl}tetrahydro-2H-pyran-4-carbonitrile]", "inhibition at 1 µM": 24.6}, {"compound": "Cc1cccc(C)c1OCCOC(F)(F)c1nnc2ccc(-c3ccc(OC(F)(F)F)cc3)cn12", "note": "[BHN-285, 3-{[2-(2,6-dimethylphenoxy)ethoxy](difluoro)methyl}-6-[4-(trifluoromethoxy)phenyl][1,2,4]triazolo[4,3-a]pyridine]", "inhibition at 1 µM": 68}, {"compound": "FC(F)(F)Oc1ccc(-c2ccc3nnc(C(F)(F)OCC#Cc4ccccc4)n3c2)cc1", "note": "[BHN-295, 3-{difluoro[(3-phenylprop-2-yn-1-yl)oxy]methyl}-6-[4-(trifluoromethoxy)phenyl][1,2,4]triazolo[4,3-a]pyridine]", "inhibition at 1 µM": 87.7}, {"compound": "OCc1nnc2ccc(-c3ccc(OC(F)(F)F)cc3)cn12", "note": "[BHN-130, {6-[4-(trifluoromethoxy)phenyl][1,2,4]triazolo[4,3-a]pyridin-3-yl}methanol]", "inhibition at 1 µM": 21.9}, {"compound": "CC(OCc1nnc2ccc(-c3ccc(OC(F)(F)F)cc3)cn12)c1ccccc1", "note": "(centres unmarked) [BHN-246, 3-[(1-phenylethoxy)methyl]-6-[4-(trifluoromethoxy)phenyl][1,2,4]triazolo[4,3-a]pyridine]", "inhibition at 1 µM": 85.8}, {"compound": "FC(F)(F)c1ncc2ccc(-c3ccccc3)cn12", "note": "[BHN-194, 6-phenyl-3-(trifluoromethyl)imidazo[1,5-a]pyridine]", "inhibition at 1 µM": 22.2}]}, {"molecular_target": "wild-type human cardiac sodium channel, hNav1.5 (Homo sapiens, UniProt Q14524)", "experiment": "Late INa screening assay (automated whole cell patch clamp, PatchXpress)", "assay_type": "cell-based", "details": "compound at 10 μM; HEK293 cells expressing hNav1.5; late INa generated with 10 μM Tefluthrin (or 50 nM ATX II); read-out: LateINa_10 uM (percent block of late INa)", "method_in_brief": "as §1", "units": {"inhibition at 10 µM": "%"}, "values": [{"compound": "Cc1nnc(-c2ccc(-c3ccc4nnc(C(F)(F)F)n4c3)cc2)o1", "note": "[BHN-71, 6-[4-(5-methyl-1,3,4-oxadiazol-2-yl)phenyl]-3-(trifluoromethyl)[1,2,4]triazolo[4,3-a]pyridine]", "inhibition at 10 µM": 20.5}, {"compound": "CC(=O)Nc1cc(-c2ccc(OC(F)(F)F)cc2C)cn2c(C)nnc12", "note": "[BHN-76, N-{3-methyl-6-[2-methyl-4-(trifluoromethoxy)phenyl][1,2,4]triazolo[4,3-a]pyridin-8-yl}acetamide]", "inhibition at 10 µM": 31.9}, {"compound": "FC(F)(F)c1nnc2ccc(-c3ccc(C4CC4)cc3)cn12", "note": "[BHN-90, 6-(4-cyclopropylphenyl)-3-(trifluoromethyl)[1,2,4]triazolo[4,3-a]pyridine]", "inhibition at 10 µM": 74.9}, {"compound": "FC(F)(F)Oc1ccc(-c2ccc3nnc(C(F)(F)F)n3c2)cc1CN1CCOCC1", "note": "[BHN-72, 6-[3-(morpholin-4-ylmethyl)-4-(trifluoromethoxy)phenyl]-3-(trifluoromethyl)[1,2,4]triazolo[4,3-a]pyridine]", "inhibition at 10 µM": 26.7}, {"compound": "Cc1nc2ccc(-c3cccc(Oc4ccccc4)c3)cn2n1", "note": "[BHN-348, 2-methyl-6-(3-phenoxyphenyl)[1,2,4]triazolo[1,5-a]pyridine]", "inhibition at 10 µM": 65.7}]}]}
